From patent US12275684B2, “Methods for making and using endoxifen” (Atossa Therapeutics, Inc., priority 2017, dated 2025)

How the values were obtained:
[1] = Bulk drug stability study of (Z)-endoxifen free base; type: physicochemical
Procedure: For bulk stability studies, ˜1 g aliquots of (Z)-endoxifen free base were placed inside individually in double LDPE bags tied with a nylon cable tie. The LDPE bags were then placed in aluminum foil bags and thermally sealed. The samples for stability were placed in tightly capped, 180 mL HDPE bottles under inert conditions (dry nitrogen) at 5° C. and 25° C./60% RH for 12 months, and at 40° C./75% RH for 3 months. The samples were tested for (E)-endoxifen and (Z)-endoxifen concentrations and impurities, moisture or water content by Karl Fischer titration, aerobic bacterial colony forming units and appearance at time points day 0, 10 days, 1 m and 3 m. Table 13 below provides bulk drug stability data at 9 m on endoxifen free base at varying storage conditions.

[2] = Accelerated 10-day stability study of solid (Z)-endoxifen free base (E/Z by HPLC); type: physicochemical; details: for (E)-endoxifen content / (Z)-endoxifen content / E/Z ratio / Total Impurity: solid
Procedure: HPLC-UV analyses of the samples was carried out using a Luna phenyl-hexyl column (4.6 mm×150 mm×3 μm of particle size). The column temperature was 40° C. and sample compartment temperature was maintained at ambient temperature. Samples were prepared by dissolving solids and filtrates at 0.2 mg/ml of sample in methanol as sample buffer. Samples were then injected into the column in an injection volume of 20 μl. Likewise, mildly acidic (pH 4.3) ammonium formate buffer/methanol in the mobile phase with gradient elution was used. Mobile phase system consisting of: Mobile Phase A (MPA) buffer was 10 mM HCOONH4 with 0.03% HCOOH buffer in water, and Mobile Phase B (MBP) buffer was 10 mM HCOONH4 in methanol with a gradient program used.
The run time was 30 m, the flow rate was 1.0 mL/m, and the delay time was 5 m. Samples were detected by UV detection at 243 nm. Retention times were typically from 12.95 to 13.20 m for (E)-endoxifen and from 14.0 to 14.33 m for (Z)-endoxifen. Relative Retention Time (RRT) for (E)-endoxifen was […] and 1.0 for (Z)-endoxifen.
The stability of (Z)-endoxifen free base Sample 1 of Table 11 was studied when stored at various temperatures in solid form and in ethanol (EtOH) solution. The (E)-endoxifen and (Z)-endoxifen levels were measured on days 2, 7 and 10 following placement of 1 g aliquots of purified (Z)-endoxifen free base in 180 mL HDPE bottles under dry N2, which were then placed in double LDPE bags. The double bagged HDPE bottles containing each sample were individually packed in aluminum foil bags and thermally sealed until they were opened for testing the stability of the samples. The (E)- and (Z)-isomers of endoxifen were monitored by HPLC as disclosed above. The purity of (Z)-endoxifen in solid form remained at about 97% at 40° C., 60° C., and 80° C. up to 10 days.

time for which stable ([1]; 40° C./75% RH): at least 3 months
(Z)-endoxifen USP <921≥ Plate Count ([1]; Storage 5° C.): 13990 cfu g/mL
(E)-endoxifen content ([1]; Storage 5° C., 0 m): 0.19%
(Z)-endoxifen % Purity ([1]; Storage 5° C., 0 m): 99.5%
Max Indiv. Impurity ([1]; Storage 5° C., 0 m): 0.11%
Water content (Karl Fischer) ([1]; Storage 5° C., 0 m): 0.06%
(E)-endoxifen content ([1]; Storage 5° C., 3 m): 0.17%
(Z)-endoxifen % Purity ([1]; Storage 5° C., 3 m): 99.6%
Max Indiv. Impurity ([1]; Storage 5° C., 3 m): 0.10%
Water content (Karl Fischer) ([1]; Storage 5° C., 3 m): 0.05%
(E)-endoxifen content ([1]; Storage 5° C., 6 m): 0.18%
(Z)-endoxifen % Purity ([1]; Storage 5° C., 6 m): 99.5%
Max Indiv. Impurity ([1]; Storage 5° C., 6 m): 0.11%
Water content (Karl Fischer) ([1]; Storage 5° C., 6 m): 0.05%
(E)-endoxifen content ([1]; Storage 5° C., 9 m): 0.19%
(Z)-endoxifen % Purity ([1]; Storage 5° C., 9 m): 99.5%
Max Indiv. Impurity ([1]; Storage 5° C., 9 m): 0.11%
Water content (Karl Fischer) ([1]; Storage 5° C., 9 m): 0.05%
(Z)-endoxifen USP <921≥ Plate Count ([1]; Storage 25° C./60% RH): 14030 cfu g/mL
(E)-endoxifen content ([1]; Storage 25° C./60% RH, 0 m): 0.19%
(Z)-endoxifen % Purity ([1]; Storage 25° C./60% RH, 0 m): 99.5%
Max Indiv. Impurity ([1]; Storage 25° C./60% RH, 0 m): 0.11%
Water content (Karl Fischer) ([1]; Storage 25° C./60% RH, 0 m): 0.06%
(E)-endoxifen content ([1]; Storage 25° C./60% RH, 3 m): 0.17%
(Z)-endoxifen % Purity ([1]; Storage 25° C./60% RH, 3 m): 99.6%
Max Indiv. Impurity ([1]; Storage 25° C./60% RH, 3 m): 0.11%
Water content (Karl Fischer) ([1]; Storage 25° C./60% RH, 3 m): 0.05%
(E)-endoxifen content ([1]; Storage 25° C./60% RH, 6 m): 0.18%
(Z)-endoxifen % Purity ([1]; Storage 25° C./60% RH, 6 m): 99.5%
Max Indiv. Impurity ([1]; Storage 25° C./60% RH, 6 m): 0.11%
Water content (Karl Fischer) ([1]; Storage 25° C./60% RH, 6 m): 0.06%
(E)-endoxifen content ([1]; Storage 25° C./60% RH, 9 m): 0.19%
(Z)-endoxifen % Purity ([1]; Storage 25° C./60% RH, 9 m): 99.5%
Max Indiv. Impurity ([1]; Storage 25° C./60% RH, 9 m): 0.11%
Water content (Karl Fischer) ([1]; Storage 25° C./60% RH, 9 m): 0.07%
(Z)-endoxifen USP <921≥ Plate Count ([1]; Storage 40° C./75% RH): 13776 cfu g/mL
(E)-endoxifen content ([1]; Storage 40° C./75% RH, 0 m): 0.19%
(Z)-endoxifen % Purity ([1]; Storage 40° C./75% RH, 0 m): 99.5%
Max Indiv. Impurity ([1]; Storage 40° C./75% RH, 0 m): 0.11%
Water content (Karl Fischer) ([1]; Storage 40° C./75% RH, 0 m): 0.06%
(E)-endoxifen content ([1]; Storage 40° C./75% RH, 3 m): 0.17%
(Z)-endoxifen % Purity ([1]; Storage 40° C./75% RH, 3 m): 99.5%
Max Indiv. Impurity ([1]; Storage 40° C./75% RH, 3 m): 0.11%
Water content (Karl Fischer) ([1]; Storage 40° C./75% RH, 3 m): 0.07%
time for which stable ([1]; ambient temperature): at least 9 months
time for which stable ([1]; solid, 5° C.): at least 9 months
time for which stable ([1]; solid, 25° C./60% RH): at least 9 months
aerobic bacterial plate count TAC ([1]; storage conditions studied): less than 20,000 cfu g/mL
water content ([1]; storage conditions studied): not more than 1%
purity of (Z)-endoxifen in solid form ([2]; 40° C., 60° C., and 80° C. up to 10 days): about 97%
(E)-endoxifen content ([2]; 40° C., 2 days): 1.27%
(Z)-endoxifen content ([2]; 40° C., 2 days): 97.45%
E/Z ratio ([2]; 40° C., 2 days): 1/76
Total Impurity ([2]; 40° C., 2 days): 1.28%
(E)-endoxifen content ([2]; 40° C., 7 days): 1.2%
(Z)-endoxifen content ([2]; 40° C., 7 days): 97.11%
E/Z ratio ([2]; 40° C., 7 days): 1/81
Total Impurity ([2]; 40° C., 7 days): 1.69%
(E)-endoxifen content ([2]; 40° C., 10 days): 1.29%
(Z)-endoxifen content ([2]; 40° C., 10 days): 97.31%
E/Z ratio ([2]; 40° C., 10 days): 1/75
Total Impurity ([2]; 40° C., 10 days): 1.40%
(E)-endoxifen content ([2]; 60° C., 2 days): 1.30%
(Z)-endoxifen content ([2]; 60° C., 2 days): 97.43%
E/Z ratio ([2]; 60° C., 2 days): 1/75
Total Impurity ([2]; 60° C., 2 days): 1.27%
(E)-endoxifen content ([2]; 60° C., 7 days): 1.17%
(Z)-endoxifen content ([2]; 60° C., 7 days): 97.1%
E/Z ratio ([2]; 60° C., 7 days): 1/83
Total Impurity ([2]; 60° C., 7 days): 1.72%
(E)-endoxifen content ([2]; 60° C., 10 days): 1.27%
(Z)-endoxifen content ([2]; 60° C., 10 days): 97.48%
E/Z ratio ([2]; 60° C., 10 days): 1/82
Total Impurity ([2]; 60° C., 10 days): 1.33%
(E)-endoxifen content ([2]; 80° C., 2 days): 1.28%
(Z)-endoxifen content ([2]; 80° C., 2 days): 97.42%
E/Z ratio ([2]; 80° C., 2 days): 1/76
Total Impurity ([2]; 80° C., 2 days): 1.30%
(E)-endoxifen content ([2]; 80° C., 7 days): 1.34%
(Z)-endoxifen content ([2]; 80° C., 7 days): 96.92%
E/Z ratio ([2]; 80° C., 7 days): 1/72
Total Impurity ([2]; 80° C., 7 days): 1.74%
(E)-endoxifen content ([2]; 80° C., 10 days): 1.27%
(Z)-endoxifen content ([2]; 80° C., 10 days): 97.33%
E/Z ratio ([2]; 80° C., 10 days): 1/77
Total Impurity ([2]; 80° C., 10 days): 1.40%
interconversion of (Z)- to (E)-endoxifen in solid form ([2]; tested temperatures up to 10 days): does not interconvert to (E)-endoxifen
SMILES: CC/C(=C(\c1ccc(O)cc1)c1ccc(OCCNC)cc1)c1ccccc1 [(Z)-Endoxifen, (Z)-4-(1-(4-(2-(methylamino)ethoxy)phenyl)-2-phenylbut-1-enyl) phenol]
